{"source": "patent US12605446B2", "about": "“PSMA-targeted immunotherapies for cancers” (THE METHODIST HOSPITAL, priority 2020, dated 2026)", "molecules": {"B1": {"name": "#1207: anti-PSMA mouse monoclonal antibody of hybridoma #1207; VH SEQ ID NO: 28, VL SEQ ID NO: 30 (antibody, V domains shown)", "VH": "VKLQQSGPGLVKPSQSLSLTCAVTGYSITSDYAWNWIRKFPGNKLEWMGYISYSGRTTYNPSLESRISITRDTSKNQFFLQLNSVTTEDTATYYCARCYYGSSSRWYGMDYWGRGTSVAVSS", "VL": "IVLTQSPAIMSASPGVKVTMTCRASSSVDSSYLHWYQQKSGASPQVWIYSTSNLASGVPARFSGSGSGTSYSLTISSVEAEDAATYYCQQYSGYPLTFGGGTKLEIKR"}, "B2": {"name": "#1366: anti-PSMA mouse monoclonal antibody of hybridoma #1366; VH SEQ ID NO: 20, VL SEQ ID NO: 22 (antibody, V domains shown)", "VH": "VKLQESGPGLVAPSQSLSITCTVSGFSLTDYGVSWIRQPPGKGLEWLGVIWSDGNTYYNSPLKSRLSINKDNSKSQVFLKMNSLQTDDSAMYYCARHKVYTMDYWGQGTSVTVSS", "VL": "B1 VL with I1T, V16E, D29S, G41S, Q45K, V46L, S50R, V78L, G100A, I106L"}, "B3": {"name": "#1352: anti-PSMA mouse monoclonal antibody of hybridoma #1352; VH SEQ ID NO: 24, VL SEQ ID NO: 26 (antibody, V domains shown)", "VH": "VKLQQSGPELEKPGASVKISCKASGYSFTGYNVNWVKQSNGKSLEWIGNIDPYHGGTTYNQKFEAKATLTVDKSSSTAYMQLKSLTSEDSAVYYCARSSRFDYWGQGTTLTVSS", "VL": "DIVMTQSHKFMSTSVGDRVNITCKASQDVGTAVAWYQQKPGQSPKFLIYWASTRHTGVPDRFTGSGSGTDFTLTISNVQSEDLADYFCHQYTSYPFTFGSGTKLEMKR"}, "B4": {"name": "#219: anti-PSMA mouse monoclonal antibody of hybridoma #219; VH SEQ ID NO: 12, VL SEQ ID NO: 14 (antibody, V domains shown)", "VH": "B3 VH with K2Q, I19M, K37R, S39N, Y53L, E64K, K73R, M80L, S84N", "VL": "B3 VL with F46L, Y91F, K103S"}, "B5": {"name": "#1377: anti-PSMA mouse monoclonal antibody of hybridoma #1377; VH SEQ ID NO: 16, VL SEQ ID NO: 18 (antibody, V domains shown)", "VH": "VQLQQPGAALVRPGASVRLSCKASGYSFTYYWMNWVMQRPGQGLEWIGMIHPSDSETRLSQKFRDKATLTVDKSSSTVYMQLNSPTSDDSAVYYCARDGNFPYYALDYWGQGTSVTVSS", "VL": "DVVLTQAPLSLPVSLGDQASISCRSSQSLEYSNGNTYLHWYLQKPGQSPELLIYTVSNRFSGVPDRFSGSGSGTDFTLKIHRVEAEDLGVYFCSQSTHVPTFGGGTKLEIKR"}}, "key": {"[1]": {"test_system": "PSMA expression in LNCaP cells", "assay": "PSMA expression after antiandrogen or androgen treatment, LNCaP", "format": "cell-based"}, "[2]": {"test_system": "PSMA expression in VCaP cells", "assay": "PSMA expression after antiandrogen or androgen treatment, VCaP", "format": "cell-based"}, "[3]": {"test_system": "PSMA-positive LNCaP cells", "assay": "Flow cytometric binding of anti-PSMA mAbs to prostate cancer cells", "conditions": "mixed PC3 and LNCaP cells, 20 μg antibody, FITC anti-mouse IgG secondary antibody", "experimental": "PC3 cells and […] cells are mixed and incubated with 20 μg of J591, our home-made mAb #1352, or […] as a negative control. Next, the cells were incubated with FITC anti-mouse IgG secondary antibody (Biolegend, cat #406001), followed by flow cytometric analysis.\n(A2). Development of anti-PSMA mAbs and construction of PSMA-CARs. The process of PSMA-CAR T cell therapy development is shown in the flowchart (FIG. 13A). PSMA extracellular domain was produced in baculovirus-insect cell expression system as reported. Purified recombinant PSMA protein was used to immunized BALB/c mice. Out of 38 ELISA-positive hybridomas, seven were confirmed by flow cytometry for their antibody-specific binding to PSMA-positive LNCaP and VCaP cells, but not to PSMA-negative PC3 cells."}, "[4]": {"test_system": "PSMA-positive prostate cancer cell lines LNCaP and VCaP", "assay": "Murine FCγRIII ADCC reporter bioassay", "format": "cell-based", "conditions": "in vitro ADCC assay"}}, "note": "Where a chain is given by its changes, count along the chain named.", "data": [{"molecule": "CNC(=O)c1ccc(N2C(=S)N(c3ccc(C#N)c(C(F)(F)F)c3)C(=O)C2(C)C)cc1F", "note": "[enzalutamide]", "values": [{"measurement": "PSMA mRNA levels", "setting": "[1]; 10 μM enzalutamide, 48 hours", "result": "increased"}, {"measurement": "PSMA protein levels", "setting": "[1]; Enzalutamide, 72 hrs", "result": "increased"}, {"measurement": "PSMA mRNA levels", "setting": "[2]; 10 μM enzalutamide, 48 hours", "result": "increased"}, {"measurement": "PSMA protein levels", "setting": "[2]; Enzalutamide, 72 hrs", "result": "increased"}]}, {"molecule": "C[C@]1(O)CC[C@H]2[C@@H]3CCC4=CC(=O)CCC4=C3C=C[C@@]21C", "note": "[R1881]", "values": [{"measurement": "PSMA mRNA levels", "setting": "[1]; 10 nM R1881", "result": "reduced"}, {"measurement": "PSMA mRNA levels", "setting": "[2]; 10 nM R1881", "result": "reduced"}]}, {"molecule": "B1", "values": [{"measurement": "binding to LNCaP cells by flow cytometry", "setting": "[3]", "result": "bind to LNCaP cells with high affinity"}]}, {"molecule": "B2", "values": [{"measurement": "binding to LNCaP cells by flow cytometry", "setting": "[3]", "result": "bind to LNCaP cells with high affinity"}]}, {"molecule": "B3", "values": [{"measurement": "induction of ADCC activity", "setting": "[4]", "result": "most potent"}, {"measurement": "binding to LNCaP cells by flow cytometry", "setting": "[3]", "result": "detected as the FITC positive cells"}]}, {"molecule": "B4", "values": [{"measurement": "binding to LNCaP cells by flow cytometry", "setting": "[3]", "result": "bind to LNCaP cells with high affinity"}]}, {"molecule": "B5", "values": [{"measurement": "binding to LNCaP cells by flow cytometry", "setting": "[3]", "result": "bind to LNCaP cells with high affinity"}]}]}
